Measured values from patent publication US20250059140A1, “C19 D[…], AND PREPARATION METHOD AND APPLICATION THEREOF” (SOUTHWEST JIAOTONG UNIVERSITY, priority 2022, published 2025).
Entries after “also recorded” stand apart in the source; their conditions may differ. Where two headings read alike, the source gives them in different places.

Assays:
[1] = system: isolated bullfrog hearts; experiment: Cardiotonic effect on isolated bullfrog hearts in vitro; conditions: for Cardiotonic effect compared with the positive control: 0.005 mol/L versus positive control at 0.01 mol/L; for activation at 5000 µM: isolated bullfrog heart, tested concentration 0.005 mol/L; for Average increase rate (%) (average amplitude growth rate of the frog heart) / Results (class of heart-strengthening effect): positive control
Procedure: The preparation of in vitro isolated bullfrog heart was carried out according to the method recorded in the literature (Ding Hong, Experimental Pharmacology, pp. 504-506, Science Publishing House, 2008) as follows. Bullfrogs weighing 150-200 g, male and female, were used herein. At room temperature, the brain and spinal cord of the bullfrogs was destroyed with a metal probe, and then the chest wall of the bullfrogs was incised to expose the heart and the right aorta and the left aorta were each threaded with a wire. The right aorta was knotted directly, and the left aorta was cut with scissors in a “V” shaped incision. A frog heart cannula containing a small amount of Ringer's solution was inserted into the ventricle. The wire of the left aorta was attached and secured to the lateral hook of the cannula. The blood in the heart tube of the bullfrogs was repeatedly flushed with fresh Ringer's solution until the fluid was clear and colorless. The heart cannula was inserted into the ventricle and perfused with Ringer's solution. The bullfrog heart cannula was fixed on the iron stand with a clamp. The muscle tension transducer was fixedly arranged under the bullfrog heart cannula, and the isolated bullfrog heart was connected to the muscle tension transducer via a bullfrog heart clip and a wire. The volume of solution in the cannula was adjusted by 1.0 mL and the subject compound or an equivalent volume of a solvent was added to the cannula. The subject compound was evaluated for cardiac activity on isolated perfused frog hearts, and heart rate and contraction amplitude were recorded.
The cardiotonic effects of compounds 1-10 provided in the present disclosure on isolated bullfrog hearts in vitro were investigated, with deacetylmaurolidine and mesaconitine as positive controls.
The tested concentration of compounds 1-10 was 0.005 mol/L, and the tested concentrations of the positive controls, i.e., mesaconitine and deacetylmaurolidine, were 0.01 mol/L and 0.0002 mol/L, respectively.

[2] = system: HIF-1α; experiment: qPCR transcriptional level of HIF-1α in CoCl2-hypoxic H9c2 cells; format: cell-based; conditions: CoCl2-induced hypoxia in H9c2 cells, FIG. 2A
Procedure: (§1) In FIGS. 2A-F, the detection is performed in triplicate; ##P<0.01, ###P<0.001, and ####P<0.0001, indicating the significant difference from the control group; and *P<0.05, **P<0.01, ***P<0.001, and ****P<0.0001, indicating the significant difference from the CoCl2 group.
(§2) When cells experienced hypoxic injury, a large amount of reactive oxygen species (ROS) was released. DCFH-DA probe was used to label ROS in H9c2 cells, and 900 μM CoCl2 and different concentrations of cammconine (12.5, 25, 50 PM) were administered to detect the changes in ROS by flow cytometry and fluorescence inverted microscopy. […] Changes in ATPase activity after treating the cells with myocardial hypoxia with cammaconine were detected by a kit. […] Changes in the transcriptional level of the cardiomyocyte hypoxia key indicator HIF-1α and calcium cycle-related indicators were detected by qPCR.

[3] = system: NHE; experiment: qPCR transcriptional level of NHE in CoCl2-hypoxic H9c2 cells; format: cell-based; conditions: CoCl2-induced hypoxia in H9c2 cells, FIG. 2F
Procedure: (§3) FIGS. 2B-F show transcriptional level results (detected by q-PCR) of calcium channel-related indicators in cardiomyocytes, where 2B: DHPR; 2C: RyR2; 2D: SERCA2a; 2E: NCX; and 2F: NHE.
as §1, §2

[4] = system: NCX; experiment: qPCR transcriptional level of NCX in CoCl2-hypoxic H9c2 cells; format: cell-based; conditions: CoCl2-induced hypoxia in H9c2 cells, FIG. 2E
Procedure: as §3, §1, §2

[5] = system: DHPR; experiment: qPCR transcriptional level of DHPR in CoCl2-hypoxic H9c2 cells; format: cell-based; conditions: CoCl2-induced hypoxia in H9c2 cells, FIG. 2B
Procedure: as §3, §1, §2

[6] = system: RyR2; experiment: qPCR transcriptional level of RyR2 in CoCl2-hypoxic H9c2 cells; format: cell-based; conditions: CoCl2-induced hypoxia in H9c2 cells, FIG. 2C
Procedure: as §3, §1, §2

[7] = system: Ca2+/Mg2+-ATPase; experiment: Ca2+/Mg2+-ATPase activity in hypoxic cardiomyocytes (kit); format: cell-based; conditions: concentration of 25 mol/L; CoCl2-induced hypoxia in H9c2 cells
Procedure: (§4) FIGS. 1B-C show an effect of the compound 1 on the Na^+/K^+-ATPase specific activity and Ca^2+/Mg^2+-ATPase activity of the hypoxic cardiomyocytes, where the test is performed in triplicate; ##P<0.01, ###P<0.001, and ####P<0.0001, indicating the significant difference from the control group; and *P<0.05, **P<0.01, ***P<0.001, and ****P<0.0001, indicating the significant difference from the CoCl2 group;
as §2

[8] = system: reactive oxygen species (ROS) in H9c2 cells; experiment: ROS detection with DCFH-DA probe in CoCl2-hypoxic H9c2 cells; format: cell-based; conditions: 12.5, 25, 50 PM; 900 μM CoCl2; flow cytometry and fluorescence microscopy
Procedure: FIGS. 1D-I show fluorescence detection results of reactive oxygen species (ROS) of different groups of H9c2 cells (scale bar: 20 μm), where 1D: control group; 1E: CoCl2 group; 1F: 50 μM-Trimetazidine group; 1G: 12.5 μM-Cammaconine group; 1H: 25 μM-Cammaconine group; and 11:50 μM-Cammaconine group;
as §2

[9] = system: Na+/K+-ATPase; experiment: Na+/K+-ATPase activity in hypoxic cardiomyocytes (kit); format: cell-based; conditions: concentration of 25 mol/L; CoCl2-induced hypoxia in H9c2 cells
Procedure: as §4, §2

[10] = system: SERCA2a; experiment: qPCR transcriptional level of SERCA2a in CoCl2-hypoxic H9c2 cells; format: cell-based; conditions: CoCl2-induced hypoxia in H9c2 cells, FIG. 2D
Procedure: as §3, §1, §2

[11] = system: H9c2 cells; experiment: H9c2 cell viability by MTT assay, CoCl2-induced myocardial hypoxia; format: cell-based; conditions: concentration of 6.25-50 M, FIG. 1A
[12] = read-out: Average increase rate (%) (average amplitude growth rate of the frog heart)
[13] = read-out: Results (class of heart-strengthening effect)
[14] = tested concentration 0.01 mol/L
[15] = tested concentration 0.0002 mol/L

CCN1C[C@]2(CO)CC[C@H](OC)[C@@]34C5C[C@@H]6[C@@H](OC)C[C@@](O)(C5[C@H]6O)C(CC23)[C@@H]14 (stereo partly drawn) [Compound 1, cammaconine]
Cardiotonic effect compared with the positive control [1]: better cardiotonic effect; also recorded: significantly enhanced
activation at 5000 µM [1, 12]: 118%
activation at 5000 µM [1, 13]: > 60%
mRNA transcriptional level of HIF-1α [2]: decreased
mRNA level of NHE [3]: decreased
mRNA level of NCX [4]: decreased
mRNA level of DHPR [5]: decreased
mRNA level of RyR2 [6]: decreased
Ca2+/Mg2+-ATPase activity [7]: increase the enzyme activity
Levels of ROS in H9c2 cells [8]: significantly reduced
Na+/K+-ATPase activity [9]: increase the enzyme activity
mRNA level of SERCA2a [10]: decreased
Cardioprotective effect on H9c2 cells (cell viability, MTT) [11]: certain cardioprotective effects

CO[C@H]1C[C@@]2(O)C3C(C[C@H]1[C@@H]3O)[C@]13C4CC2[C@H]1N(C)C[C@]4(CO)CC[C@@H]3OC (stereo partly drawn) [Compound 2, N-deethyl-N-methyl cammaconine]
Cardiotonic effect compared with the positive control [1]: better cardiotonic effect; also recorded: significantly enhanced
activation at 5000 µM [1, 12]: 159%
activation at 5000 µM [1, 13]: > 60%

CO[C@H]1C[C@@]2(O)C3C(C[C@H]1[C@@H]3O)[C@]13C4CC2[C@H]1NC[C@]4(CO)CC[C@@H]3OC (stereo partly drawn) [Compound 3, N-deethyl cammaconine]
activation at 5000 µM [1, 12]: 36.8%
activation at 5000 µM [1, 13]: 31 to 60%

CCN1C[C@]2(CO)CC[C@H](OC)[C@@]34C5C[C@@H]6[C@@H](OC)C[C@@](O)(C5[C@H]6OC)C(CC23)[C@@H]14 (stereo partly drawn) [Compound 4, scaconine]
Cardiotonic effect compared with the positive control [1]: better cardiotonic effect; also recorded: significantly enhanced
activation at 5000 µM [1, 12]: 156%
activation at 5000 µM [1, 13]: > 60%

CCN1C[C@]2(CO)CC[C@H](OC)[C@@]34C5C[C@@H]6[C@@H](OC)C[C@@](OC)(C5[C@H]6O)C(CC23)[C@@H]14 (stereo partly drawn) [Compound 5, 8-O-methyl cammaconine]
activation at 5000 µM [1, 12]: 33.6%
activation at 5000 µM [1, 13]: 31 to 60%

CCN1C[C@]2(CO)CC[C@H](OC)[C@@]34C5C[C@@H]6[C@@H](OC)C[C@@](OC)(C5[C@H]6OC)C(CC23)[C@@H]14 (stereo partly drawn) [Compound 6, 8,14-O-dimethyl cammaconine]
activation at 5000 µM [1, 12]: 31.2%
activation at 5000 µM [1, 13]: 31 to 60%

CCN1C[C@]2(CO)CC[C@H](OC)[C@@]34C5C[C@H]6[C@H](O)C5[C@](O)(C[C@@H]6O)C(CC23)[C@@H]14 (stereo partly drawn) [Compound 7, 16-demethyl cammaconine]
Cardiotonic effect compared with the positive control [1]: better cardiotonic effect; also recorded: significantly enhanced
activation at 5000 µM [1, 12]: 75.2%
activation at 5000 µM [1, 13]: > 60%

CCO[C@]12C[C@H](OC)[C@H]3CC(C1[C@H]3O)[C@]13C4CC2[C@H]1N(CC)C[C@]4(CO)CC[C@@H]3OC (stereo partly drawn) [Compound 8, 8-O-ethyl cammaconine]
activation at 5000 µM [1, 12]: 57.2%
activation at 5000 µM [1, 13]: 31 to 60%

CCO[C@]12C[C@H](OC)[C@H]3CC(C1[C@H]3OC)[C@]13C4CC2[C@H]1N(CC)C[C@]4(CO)CC[C@@H]3OC (stereo partly drawn) [Compound 9, 8-O-ethyl, 14-O-methyl cammaconine]
activation at 5000 µM [1, 12]: 21.8%
activation at 5000 µM [1, 13]: 16 to 30%

CO[C@H]1C[C@@]2(O)C3C(C[C@H]1[C@@H]3OC)[C@]13C4CC2[C@H]1N(C)C[C@]4(CO)CC[C@@H]3OC (stereo partly drawn) [Compound 10, N-deethyl-N-methyl 14-O-methyl cammaconine]
Cardiotonic effect compared with the positive control [1]: better cardiotonic effect; also recorded: significantly enhanced
activation at 5000 µM [1, 12]: 148%
activation at 5000 µM [1, 13]: > 60%

COC[C@]12CN(C)[C@@H]3[C@@H]4[C@H](OC)[C@H]1[C@@]3([C@@H](OC)C[C@H]2O)[C@@H]1C[C@@]2(O)[C@H](OC(=O)c3ccccc3)[C@@H]1[C@]4(OC(C)=O)[C@@H](O)[C@@H]2OC [Mesaconitine, mesaconitine, reference compound]
Average increase rate (%) (average amplitude growth rate of the frog heart) [1, 14]: 70.7%
Results (class of heart-strengthening effect) [1, 14]: Strong (>60% (+++, strong))

deacetylmaurolidine [reference compound]
Average increase rate (%) (average amplitude growth rate of the frog heart) [1, 15]: 61%
Results (class of heart-strengthening effect) [1, 15]: Strong (>60% (+++, strong))
